A word on the Kd: it is a measure of binding affinity in units of concentration.

SMILES strings stand for the structures. The source made the active and inactive calls. How the calls were made is not given here.

This test deals with Chaperone protein DnaK (Escherichia coli (strain K12)) (UniProt P0A6Y8). As to the kind of experiment: binders of DnaK substrate-binding domain, biophysical, NMR, chaperone (AID 1033). The settings on record: Purified DnaK SBD, NMR ligand binding.
Sequence of Chaperone protein DnaK (Escherichia coli (strain K12)) (P0A6Y8 whole entry, looked up, the tested form may be a part): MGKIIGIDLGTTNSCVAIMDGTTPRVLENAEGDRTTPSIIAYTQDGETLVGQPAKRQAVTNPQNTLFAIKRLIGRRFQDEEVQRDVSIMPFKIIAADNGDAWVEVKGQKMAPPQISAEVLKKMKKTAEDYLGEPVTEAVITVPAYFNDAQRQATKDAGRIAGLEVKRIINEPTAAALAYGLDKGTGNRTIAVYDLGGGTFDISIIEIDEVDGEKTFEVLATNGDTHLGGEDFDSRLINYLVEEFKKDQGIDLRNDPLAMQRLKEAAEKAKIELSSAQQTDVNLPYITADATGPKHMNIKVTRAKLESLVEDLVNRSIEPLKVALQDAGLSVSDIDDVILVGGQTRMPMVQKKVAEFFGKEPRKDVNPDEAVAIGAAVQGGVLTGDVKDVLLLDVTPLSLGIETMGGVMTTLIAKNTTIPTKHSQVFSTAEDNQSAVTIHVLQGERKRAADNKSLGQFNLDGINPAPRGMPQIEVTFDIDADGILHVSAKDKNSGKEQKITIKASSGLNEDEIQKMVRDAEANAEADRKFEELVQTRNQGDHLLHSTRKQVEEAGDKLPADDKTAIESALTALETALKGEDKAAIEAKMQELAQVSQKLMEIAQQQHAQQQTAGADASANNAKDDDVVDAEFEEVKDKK
With `COC(=O)C[C@@H]1C2(C)C(=O)[C@@H](CC3C2CC[C@]2(C)C3CC(=O)O[C@H]2c2ccoc2)[C@H](OC(C)=O)C1(C)C` (stereo partly specified), the Kd is > 4 mM (inactive).

Turning to `Cc1cccc(C)c1NC(=O)/C=C/C(=O)O`, the Kd is > 4 mM (inactive).

Take `CN1C(=O)/C(=C/c2ccccc2O)NC1=S`: the Kd was > 4 mM (inactive).

Regarding `CC(=O)N1CCN(C2CCSC2)CC1` (stereo unspecified), the Kd is > 4 mM (inactive).

Take `CP(C)(=O)c1cccc(C(=O)O)c1`: the Kd is > 4 mM (inactive).

In the case of `C=C1C([C@]2(C)C(CC(=O)OC)[C@@](C)(COC(C)=O)OC(=O)C[C@@H]2OC(C)=O)[C@@H](OC=O)[C@H](OC(=O)C(OC(C)=O)C(C)CC)[C@@]2(C)[C@H](c3ccoc3)CC(=O)C12O` (stereo partly specified), the Kd is > 4 mM (inactive).

As to `O=C1C2C3CCC(O3)C2C(=O)N1c1ccccc1` (stereo unspecified), the Kd is > 4 mM (inactive).

Regarding `Cc1nc(-c2ccc(NS(C)(=O)=O)cc2)cs1`, the Kd was > 4 mM (inactive).

Take `CC(C)Nc1ncnc2c1nnn2C`: the Kd was > 4 mM (inactive).

In the case of `O=C(O)CSc1nnc(-c2cccs2)o1`, the Kd is > 4 mM (inactive).

For the molecule `CN(C)N1C(=O)c2ccccc2C1=O`, the Kd is > 4 mM (inactive).

Consider `O=S(=O)(NCc1ccco1)c1cccc2cccnc12`, for which the Kd is > 4 mM (inactive).

`NC(=O)NC1NC(=O)NC1=O` (stereo unspecified): the Kd was > 4 mM (inactive).

With `Nc1cccc(CC(=S)N2CCOCC2)c1`, the Kd was > 4 mM (inactive).

Regarding `NC(=O)C1CCN(c2nccc(C(F)(F)F)n2)CC1`, the Kd was > 4 mM (inactive).

On to `O=C1CCC(=O)N1c1cccnc1`, for which the Kd is > 4 mM (inactive).

With `O=C1NNC(=O)C2C3c4ccccc4C(c4ccccc43)C12` (stereo unspecified), the Kd is > 4 mM (inactive).

With `CC(=O)O[C@H]1CC[C@@]2(C)C(=CCC3C2CC[C@@]2(C)C3CC[C@@H]2C(C)CCCC(C)C)C1` (stereo partly specified), the Kd is > 4 mM (inactive).

For `CSc1n[nH]c(NCc2cccs2)n1`, the Kd was > 4 mM (inactive).

For `CN1CCC(NC(=O)c2cccnc2)CC1`, the Kd was > 4 mM (inactive).

Consider `CSc1ccccc1NC(=O)c1ccco1`, for which the Kd is > 4 mM (inactive).

In the case of `O=C1OC(N2CCOCC2)c2ccccc21` (stereo unspecified), the Kd was > 4 mM (inactive).

On to `CCOC(=O)C1C(C=C(C)C)C1(C)C` (stereo unspecified), for which the Kd was > 4 mM (inactive).

In the case of `O=C(O)c1ccc2occc2c1`, the Kd is > 4 mM (inactive).

Regarding `COC(=O)NCc1cc2cc(Cl)ccc2[nH]1`, the Kd is > 4 mM (inactive).

As to `O=C(c1ccc(Cl)s1)N1CCOCC1`, the Kd is > 4 mM (inactive).

Consider `OCc1snnc1-c1ccccc1`, for which the Kd was > 4 mM (inactive).

In the case of `CN(C)C1CCS(=O)(=O)C1` (stereo unspecified), the Kd is > 4 mM (inactive).

`COC(=O)c1c[nH]c2ccccc12`: the Kd is > 4 mM (inactive).

As for `Cc1cc(NC(=O)c2ccccc2C(=O)O)no1`, the Kd was > 4 mM (inactive).

Take `CC1(C)CC(NC(=O)/C=C/C(=O)O)CC(C)(C)N1`: the Kd is > 4 mM (inactive).

Consider `CCn1nnc(NC(=O)c2ccccc2Br)n1`, for which the Kd was > 4 mM (inactive).

In the case of `Nc1nsc(-c2ccccc2)n1`, the Kd was > 4 mM (inactive).

On to `O=C1NC(=S)N/C1=C\c1ccccc1F`, for which the Kd was > 4 mM (inactive).

Consider `Cc1c(N=CN2CCOCC2)c(=O)n(C)c(=O)n1C`, for which the Kd was > 4 mM (inactive).

Consider `C=CC(C)(O)CC/C=C(\C)CCC=C(C)C` (stereo unspecified), for which the Kd was > 4 mM (inactive).

For the molecule `c1ccc2c(c1)ncn2CCn1cnc2ccccc21`, the Kd was > 4 mM (inactive).

In the case of `COC(=O)[C@@]1(C)CCC[C@]2(C)c3ccc(O)c(C(C)C)c3CCC12` (stereo partly specified), the Kd was > 4 mM (inactive).

As to `c1ccc(-n2nnnc2Oc2cccc3cccnc23)cc1`, the Kd was > 4 mM (inactive).

Regarding `OCCOc1ccc(C2=NCCO2)cc1`, the Kd was > 4 mM (inactive).

With `Cc1cc(C)c(NC(=O)CN2CCC(O)CC2)c(C)c1`, the Kd was > 4 mM (inactive).

Turning to `CC(C)CCCC(C)C1CCC2C3=CC[C@H]4C[C@@H](O)CC[C@]4(C)C3CC[C@@]21C` (stereo partly specified), the Kd is > 4 mM (inactive).

In the case of `NC(=O)CN=Cc1c(O)[nH]c2ccccc12`, the Kd was > 4 mM (inactive).

On to `COc1cccc(NC(=O)c2ncn[nH]2)c1`, for which the Kd is > 4 mM (inactive).

For the molecule `O=C(Nc1ccon1)c1sc2cc(F)ccc2c1Cl`, the Kd is > 4 mM (inactive).

Take `Cn1nc(C(=O)N2CCOCC2)c2ccccc2c1=O`: the Kd is > 4 mM (inactive).

Turning to `Cc1nnc(NCCO)[nH]c1=O`, the Kd was > 4 mM (inactive).

Consider `S=C(NC1CC1)NN1CCOCC1`, for which the Kd is > 4 mM (inactive).

For `CC(=O)O[C@H]1C[C@@H](OC(C)=O)C(C)(C)C2CC(=O)[C@]3(C)C(CC[C@@]4(C)[C@H](c5ccoc5)OC(=O)[C@H]5O[C@]543)[C@]21C` (stereo partly specified), the Kd was > 4 mM (inactive).

Regarding `COc1ccc2c(c1)OCC(Cc1ccc(OC)c(OC(C)=O)c1)C2=O` (stereo unspecified), the Kd is > 4 mM (inactive).

On to `CN(C)c1ccc(NC(=O)CC(C(=O)O)N(C)C)cc1` (stereo unspecified), for which the Kd was > 4 mM (inactive).

Take `COc1c(O)cc2c(c1O)[C@H]1O[C@H](CO)[C@@H](O)[C@H](O)[C@@H]1OC2=O`: the Kd is > 4 mM (inactive).

For `Cc1cc(C)n(S(=O)(=O)c2ccc(C)c(C)c2C)n1`, the Kd was > 4 mM (inactive).

For the molecule `COc1cc(C(C)=O)ccc1OCC(O)Cn1ccnc1` (stereo unspecified), the Kd was > 4 mM (inactive).

Turning to `CSc1nc2nccc(N)n2n1`, the Kd is > 4 mM (inactive).

As to `Cc1c(N=Cc2ccc[nH]2)c(=O)n(-c2ccccc2)n1C`, the Kd was > 4 mM (inactive).

On to `C=C[C@@H](C1=CC(=O)C(OC)=C(OC)C1=O)c1ccccc1`, for which the Kd was > 4 mM (inactive).

`COC(=O)Nc1nnc(-c2ccncc2)s1`: the Kd was > 4 mM (inactive).

On to `CC(=O)c1nnc2cc(C)nn2c1C`, for which the Kd is > 4 mM (inactive).

`Cc1ccc(C(=O)N2CCOCC2)cc1Cl`: the Kd was > 4 mM (inactive).

On to `c1cc2n(c1)CCNC2c1ccncc1` (stereo unspecified), for which the Kd was > 4 mM (inactive).

As to `COC(=O)c1nc(-c2ccccc2)oc1N(C)C`, the Kd was > 4 mM (inactive).

On to `CC[C@@]1(O)C[C@H](O[C@H]2C[C@H](N(C)C)[C@H](O)[C@H](C)O2)c2c(cc3c(c2O)C(=O)c2c(O)cccc2C3=O)[C@H]1C(=O)OC`, for which the Kd is > 4 mM (inactive).

On to `COc1ccccc1NC(=O)CCC(=O)O`, for which the Kd is > 4 mM (inactive).

As for `c1ccc(-c2nnc3sc(-c4ccncc4)nn23)cc1`, the Kd was > 4 mM (inactive).

As to `Cn1nnc2cc(C(=O)Nc3cccnc3)ccc21`, the Kd was > 4 mM (inactive).

As for `Cc1nc2cc(Cl)ccc2n1CCO`, the Kd was > 4 mM (inactive).

`Cc1cc(=O)n2nc(-c3ccccc3)sc2n1`: the Kd was > 4 mM (inactive).

For `Cc1cc(=O)[nH]c(NCC(=O)O)n1`, the Kd was > 4 mM (inactive).

Turning to `C=C1C2CC[C@@]3(C)[C@H](c4ccoc4)OC(=O)C[C@]13O[C@H]1CC(=O)C(C)(C)[C@H](C(O)C(=O)OC)[C@@]21C` (stereo partly specified), the Kd was > 4 mM (inactive).

As to `Cc1nnc(N2CCN(c3ccccc3)CC2)[nH]c1=O`, the Kd was > 4 mM (inactive).

The values above are taken from PubChem BioAssay AID1033 (Sanford-Burnham Center for Chemical Genomics, 2008).
